# Assay results: patent EP0398427A1, “Antirhinoviral pyridazinamines” (priority 1989, dated 1990)
# Tests used:
# [1] = system: Human Rhinovirus serotypes HRV- 2,-29,-39,-85,-9,-15,-51,-59,-63,-89 and -41; experiment: Picornavirus Minimal Inhibitory Concentration test (cytopathic effect reduction assay), first panel of rhinoviruses; type: cell-based; conditions: Human rhinovirus sp., HeLa, read-out: Med₁
# Method: (§1) The Minimal Inhibitory Concentration of the compounds of the present invention against the Human Rhinovirus strains (HRV) -2,-9,-14,-15,-29,-39,-41,-42,-45,-51 -59,-63,-70,-72-,-85,-86 and -89 was determined by a standard cytophatic effect reduction assay as follows. To each of the ninty six (96) wells of a microtiter 96 well tissue culture plate there was added 60 µl of a Ohio Hela cell maintenance medium [Eagle's Basal medium supplemented with 5% Foetal Calf Serum (FCS)]. To two wells there was added 60 µl of an appropriate starting dilution of a compound of formula (I) and two-fold dilutions were made to cover a wide range of compound concentrations. Subsequently there were added 120 µl of an infectious solution of virus in Eagle's Basal Medium with 2% Hepes buffer, 2% FCS and 30 mM MgCl₂ to all wells except cell and compound controls. Said infectious virus solution having a TCID₅₀-value (Tissue Culture Infectious Dose) of about 100.
# (§2) The TCID₅₀-value is the dose of viruses which initiates a cytopathic effect in 50% of the inoculated cells. 150 µl of the thus obtained virus-compound mixtures were then transferred to microtitre plates with subconfluent Ohio Hela Cells, grown in 100 µl of maintenance medium. Appropriate virus controls, cell controls and compound controls were included in each test. Plates were incubated for 3 to 5 days at 33°C in 5% CO₂ atmosphere. […] The IC₅₀-value for each virus-compound series was taken as the concentration in ng/ml that protected 50% of the cells from cytopathic effects with respect to the untreated controls. In the standard test procedure, the compounds were tested against a first panel of rhinoviruses consisting of serotypes HRV- 2,-29,-39,-85,-9,-15,-51,-59,-63,-89 and -41 and the other panel consisting of HRV-42,-45,-14,-70,-72 and -86.
# (§3) The IC₅₀-value for each rhinovirus serotype was determined, and the efficacy of each compound was determined in terms of the Med₁-value and Med₂-value, which is the medium value of the IC₅₀-values of all serotypes from the first and second panel respectively.
# [2] = system: HRV-42,-45,-14,-70,-72 and -86; experiment: Picornavirus Minimal Inhibitory Concentration test (cytopathic effect reduction assay), second panel of rhinoviruses; type: cell-based; conditions: Human rhinovirus sp., HRV42, HeLa, read-out: Med₂
# Method: as §1, §2, §3
Compound,IC50 [1],IC50 [2]
"CCOC(=O)c1ccc2nc(CC3CCN(c4ccc(Cl)nn4)CC3)sc2c1 [Compound 2, ethyl 2-[[1-(6-chloro-3-pyridazinyl)-4-piperidinyl]methyl]-6-benzothiazolecarboxylate]",0.031 µg/mL,0.067 µg/mL
"CCOC(=O)c1ccc(OCCC2CCN(c3ccc(C)nn3)CC2)s1 [Compound 7, ethyl 5-[2-[1-(6-methyl-3-pyridazinyl)-4-piperidinyl]ethoxy]-2-thiophenecarboxylate]",0.007 µg/mL,0.185 µg/mL
"CCOC(=O)c1ccc2oc(CCC3CCN(c4ccc(Cl)nn4)CC3)nc2c1 [Compound 4, ethyl 2-[2-[1-(6-chloro-3-pyridazinyl)-4-piperidinyl]ethyl]-5-benzoxazolecarboxylate]",0.088 µg/mL,0.039 µg/mL
